Where no end group is shown, it is not given here.
Columns and labels:
[1] = system: CD4+ mediated humoral response; assay: Enhancement of a CD4+ mediated humoral response (serum Ovalbumin-specific IgE); type: in vivo, Balb/C mice; conditions: mice immunised i.p. with 25 μg Ovalbumin in Alumn; 1 mg lipopeptide on skin for 3 days; day 20; FIG. 5
Experimental: (§1) TRP2180-188 lipopeptide and OVA323-339-lipopeptide were diluted at 10 mg/ml in olive oil. Mice were treated during by applying 1 mg lipopeptide or olive oil directly on shaved abdominal skin.
(§2) Sandwich ELISA was used to measure IFN-γ. In brief, ELISA plates (Polylabo, France) were coated with the appropriate coating mAbs (monoclonal antibodies) in carbonate buffer and incubated at 4° C. overnight. Plates were blocked for 30 mn at room temperature with 150 μl of 20% FCS/PBS to each well. 50 μl supernatants from in vitro stimulated cells were then added to the plates and incubated overnight at 4° C. After a washing step, 50 μl/well of the biotinylated second-step Ab was added. Plates were incubated for 1 h at room temperature and washed. The enzyme conjugate (streptavidin-peroxidase) was then added to each well. Plates were incubated at room temperature for 1 h, washed and 100 μl/well of substrate was added, (1 mg/ml ABTS). Plates were read on an ELISA reader at a wavelength of 405 nm after color development (Labsystems iEMS reader, Helsinki, Finland). […]
The inventors also wanted to know wether a lipopeptide epicutaneous application could enhance an humoral response elicited by CD4^+ T lymphocytes in immunised mice. […] At day 20, mice were sacrificed and the concentration of Ovalbumin-specific IgE immunoglobulin was measured in the serum of mice.

[2] = system: OVA-specific DO11-10 T cells; assay: In vivo activation of T lymphocytes by cutaneous lipopeptide application on the ear (FACS of draining lymph node); set-up: species or system BALB/c mice; conditions: daily 20 μl of 50 μM on the ear, vs olive oil; FIG. 1
Experimental: Lipopeptide activates T lymphocytes in vivo. BALB/c mice were injected intravenously with 20×10^6 DO11-10 TCR-anti OVA transgenic splenocytes. Mice where then treated during 4 days by applying daily 20 μl of 50 μM OVA323-339-lipopeptide or the vehicle directly on one ear. At day five, mice were sacrificed, the draining lymph node and the contra-lateral node cells were stained with the anti-idiotype KJ1-26 recognizing specifically DO11-10 T lymphocytes, anti-CD4 and anti-CD25 antibody. FACS analysis is shown for lymph node cells gated on CD4^+ T lymphocytes.
To analyze the potential curative effect of Tr1 cells in a different inflammatory model, the inventors set up skin inflammation experiments using the hapten oxazolone in three daily applications (FIG. 1). Because Tr1 cells need to be activated at the site of inflammation, they first tested the ability of cutaneous application of lipo-Ova peptide to stimulate T cells. BALB/c mice were injected with naive OVA-specific DO11-10 T cells and mice were treated during […] by applying daily 20 μl of 50 μM OVA323-339-lipopeptide or olive oil directly on the ear. […] In that model, three days after the induction of ear inflammation with oxazolone, the mice were treated with OVA-specific Th1, Th2 or Tr1 T-cell populations or a Tr1 cell clone (FIG. 2) and the lipo-OVA peptide was applied for 6 days.

[3] = system: CD8+ mediated T lymphocyte response; assay: Priming of a CD8+ T lymphocyte response by epicutaneous lipopeptide application (IFN-γ by lymph node cells); type: in vivo, C57BL/6 mice; conditions: 1 mg on shaved abdomen once a day during one week, read one week later, vs untreated or vehicle; FIG. 3
Experimental: as §1
as §2, with “Plates were incubated at room temperature for 1 h, washed and 100 μl/well of substrate was added, (1 mg/ml ABTS).” left out
The inventors first wanted to know whether the epicutaneous application of a MHC class I restricted peptide formulated as a lipopeptide could prime a T CD8^+ lymphocyte mediated immune response in mice. […] One week after the last lipopeptide application, mice were sacrificed and the production of IFN-γ by skin draining lymph nodes cells was measured in vitro upon restimulation with the TRP2180-188 peptide.

[4] = system: CD8+ mediated T lymphocyte response; assay: Enhancement of a CD8+ T lymphocyte response after prior peptide immunisation (IFN-γ by lymph node cells); type: in vivo; conditions: mice previously immunised s.c. with 25 μg TRP2180-188 peptide in CFA; 1 mg lipopeptide on skin for 3 days; day 30; FIG. 4
Experimental: as §1, §2
The inventors next wanted to evaluate the capacity of the TRP2180-188 lipopeptide treatment to enhance a prior immunisation of mice with the TRP2180-188 peptide. […] At day 30, mice were sacrificed and the production of IFN-γ by skin draining lymph nodes cells was measured in vitro upon restimulation with the TRP2180-188 peptide.

| Substance | serum concentration of Ovalbumin-specific IgE [1] | activated (CD25+) OVA-specific (KJ1-26+) T cells in draining lymph nodes [2] | production of IFN-γ by skin draining lymph nodes cells upon restimulation with the TRP2180-188 peptide [3] | production of IFN-γ by skin draining lymph nodes cells upon restimulation with the TRP2180-188 peptide [4] |
| --- | --- | --- | --- | --- |
| OVA323-339-lipopeptide (KISQAVHAAHAEINEAG; also: lipid moiety, structure and place not given here; UniProt P01012 323-339, looked up, fragment) [peptide 323-339 from Ovalbumin, MHC Class II I-A^d restricted, formulated as lipopeptide; purchased from Bachem] | increase in the serum concentration of Ovalbumin specific IgE | accumulation of activated (CD25^+) OVA-specific (KJ1-26^+) only in the ear draining-lymph node treated with the lipopeptide | – | – |
| TRP2180-188 lipopeptide (SVYDFFVWL; also: lipid moiety, structure and place not given here; UniProt P29812 180-188, looked up, fragment) [lipopeptide derived from the tyrosinase related protein-2, restricted to the H2-K^b molecule; purchased from Bachem] | – | – | high amounts of IFN-γ were produced | enhancement of the IFNγ production |
